Earlier results in patent US7517545B2, “Reduced-calorie fats containing behenic acid and process of making thereof” (Council of Scientific & Industrial Research, priority 1997, dated 2009).

Conditions: feed study on rats

CCCCCCCCCCCCCCCCCCCCCCOC(COC(=O)CCCCC)COC(=O)CCCCC [2-behenyl-1,3-dicaproyl glycerol]
absorption of the structured triglycerides vs other oils: significantly lower
excretion into feces vs other oils: higher than other oils
